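Five compound concentrations were applied to cells in 96-well plates for 48 hours; endpoints were derived by simple linear interpolation of the resulting dose-response curve. GI50 = concentration required for 50% inhibition of growth. The concentration for full growth arrest is given as TGI.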
Legend:
Assay in all cases: NCI-60 cell line screen, 48 h
[1] = test system: 786-0 renal
[2] = test system: ACHN renal
[3] = test system: SF-295 CNS
[4] = test system: SK-MEL-5 melanoma
[5] = test system: SK-OV-3 ovarian
[6] = test system: T-47D breast
[7] = test system: UACC-257 melanoma
[8] = test system: BT-549 breast
[9] = test system: SR leukemia
[10] = test system: UACC-62 melanoma

SMILES	TGI [1]	TGI [2]	TGI [3]	TGI [4]	TGI [5]	TGI [6]	TGI [7]	GI50 [8]	TGI [8]	GI50 [5]	TGI [9]	TGI [10]	GI50 [2]	GI50 [3]	GI50 [4]	GI50 [6]	GI50 [7]	GI50 [10]	GI50 [9]
C/C(Cl)=N\OC(=O)Nc1ccc(C)cc1	32.7 µM	29.1 µM	30.5 µM	31.5 µM	31.1 µM	48.2 µM	32.9 µM	–	–	–	–	–	–	–	–	–	–	–	–
CCc1c(CNc2ccc(C(=O)NC(CC(=O)O)C(=O)O)cc2)ccc2nc(N)nc(N)c12 (stereo not drawn)	> 1000 µM	> 1000 µM	> 1000 µM	> 1000 µM	> 1000 µM	–	–	685 µM	> 1000 µM	> 1000 µM	> 1000 µM	> 1000 µM	–	–	–	–	–	–	–
CC(C)N1CC2CC(CN(C(=O)c3ccccc3)C2)C1	> 100 µM	> 100 µM	> 100 µM	> 100 µM	> 100 µM	–	> 100 µM	–	–	–	–	> 100 µM	–	–	–	–	–	–	–
COc1ccc(/C=c2\s/c(=C3/SC(=S)N(c4ccccc4)C3=O)n(-c3ccccc3)c2=O)cc1	> 100 µM	28.8 µM	> 100 µM	> 100 µM	45 µM	> 100 µM	–	–	> 100 µM	–	31.8 µM	> 100 µM	–	–	–	–	–	–	–
COC(=O)c1ccccc1NC(=O)C(=O)NNC(=O)c1ccncc1	> 100 µM	> 100 µM	> 100 µM	> 100 µM	> 100 µM	–	> 100 µM	–	–	–	> 100 µM	> 100 µM	–	–	–	–	–	–	–
COC(=O)C(=O)C(C(=O)C(=O)Nc1cccc(C(C)=O)c1)c1nc2ccccc2[nH]c1=O (stereo not drawn)	> 100 µM	> 100 µM	> 100 µM	> 100 µM	> 100 µM	–	> 100 µM	–	–	–	–	> 100 µM	–	–	–	–	–	–	–
Cc1cc2ncn(C3CCCCO3)c2cc1C (stereo not drawn)	> 100 µM	> 100 µM	> 100 µM	> 100 µM	> 100 µM	> 100 µM	> 100 µM	–	> 100 µM	–	–	> 100 µM	–	–	–	–	–	–	–
CN(C)c1ccc(/C=C(\NC(=O)c2ccccc2)c2nn(C)c(=O)o2)cc1	> 100 µM	> 100 µM	> 100 µM	93.5 µM	> 100 µM	> 100 µM	> 100 µM	–	> 100 µM	–	–	> 100 µM	–	–	–	–	–	–	–
C/C=C(/C)C(=O)OC1CC(C)[C@H]2CC(=O)C(C)=C2CC1C(C)(C)OC(C)=O (stereo partly drawn)	> 100 µM	> 100 µM	> 100 µM	29.7 µM	–	46.2 µM	51.6 µM	–	85.4 µM	–	78.9 µM	48.6 µM	–	–	–	–	–	–	–
CC[C@H](Nc1nc(C)nc(N)c1C#N)c1nc2cccc(NCc3ccc(C(=O)NO)cc3)c2c(=O)n1-c1ccccc1	–	3.69 µM	3.14 µM	3.47 µM	3.13 µM	7.06 µM	4.16 µM	1.93 µM	4.56 µM	1.65 µM	–	3.17 µM	1.63 µM	1.66 µM	1.84 µM	1.86 µM	1.83 µM	1.55 µM	–
S=C(N/N=C\C(=N/NC(=S)N1CCCCC1)c1ccccc1)N1CCCCC1	3.74 µM	3.11 µM	3.91 µM	3.32 µM	3.37 µM	6.72 µM	5.01 µM	–	3.57 µM	–	–	4.1 µM	–	–	–	–	–	–	–
COC(=O)C1CCc2sc3ncnc(Nc4cn[nH]c4C(=O)Nc4ccc(CN5CCN(C)CC5)cc4)c3c21 (stereo not drawn)	–	10.1 µM	17.1 µM	2.56 µM	> 100 µM	11.6 µM	2.8 µM	0.899 µM	6.02 µM	0.132 µM	0.815 µM	6.59 µM	0.232 µM	0.659 µM	0.58 µM	0.957 µM	1.19 µM	1.36 µM	0.285 µM
C1=C2C3=[N+](CCCCC3)CC2Cc2ccsc21 (stereo not drawn)	> 100 µM	> 100 µM	> 100 µM	> 100 µM	> 100 µM	> 100 µM	85.3 µM	–	> 100 µM	–	–	> 100 µM	–	–	–	–	–	–	–
COc1ccc2nc(/C(N)=C\C#N)ccc2c1	> 100 µM	> 100 µM	> 100 µM	> 100 µM	–	76.2 µM	> 100 µM	–	–	–	> 100 µM	> 100 µM	–	–	–	–	–	–	–
COc1ccc(C2C3=C(COC3=O)Oc3cc4c(cc32)OCO4)c(OC)c1 (stereo not drawn)	> 100 µM	> 100 µM	29.8 µM	> 100 µM	93.1 µM	–	> 100 µM	–	> 100 µM	–	> 100 µM	–	–	–	–	–	–	–	–
CS(=O)(=O)Nc1ccc2c(c1)N(S(C)(=O)=O)CC2CCl (stereo not drawn)	> 100 µM	> 100 µM	> 100 µM	> 100 µM	–	> 100 µM	> 100 µM	–	> 100 µM	–	> 100 µM	> 100 µM	–	–	–	–	–	–	–
O=P(O)(O)c1ccccc1Oc1ccccc1	> 100 µM	> 100 µM	> 100 µM	> 100 µM	> 100 µM	–	> 100 µM	–	> 100 µM	–	–	> 100 µM	–	–	–	–	–	–	–
CCC1=C(C(C)=O)[C@@H]2CCCCC[C@@H](C(=O)OC)C2C1=O (stereo partly drawn)	> 100 µM	> 100 µM	> 100 µM	> 100 µM	> 100 µM	–	> 100 µM	–	–	–	> 100 µM	> 100 µM	–	–	–	–	–	–	–
CCC(O)(Cc1ccc(OC)cc1)c1ccc(OC)cc1 (stereo not drawn)	> 100 µM	> 100 µM	> 100 µM	> 100 µM	> 100 µM	–	> 100 µM	–	> 100 µM	–	> 100 µM	> 100 µM	–	–	–	–	–	–	–
CCOC(=O)C1(C#N)C(c2ccccc2)CC(O)(c2ccc(Cl)cc2)C(C(=O)c2ccc(Cl)cc2)C1c1ccccc1 (stereo not drawn)	> 100 µM	> 100 µM	> 100 µM	> 100 µM	> 100 µM	–	> 100 µM	–	–	–	> 100 µM	> 100 µM	–	–	–	–	–	–	–
CC1(C)OCC2OC3([C@@H]4OC(C)(C)O[C@H]4CO)OC(C)(C)OC3C2O1 (stereo partly drawn)	> 100 µM	> 100 µM	> 100 µM	> 100 µM	–	> 100 µM	> 100 µM	–	> 100 µM	–	> 100 µM	> 100 µM	–	–	–	–	–	–	–
O=C(O)c1cccc2cccc(-c3cccc4cccc(C(=O)O)c34)c12	> 100 µM	> 100 µM	> 100 µM	> 100 µM	> 100 µM	> 100 µM	> 100 µM	–	> 100 µM	–	–	> 100 µM	–	–	–	–	–	–	–
